Experimental data reported in patent publication US7411002B2, “Polycationic sulfonamides and use thereof” (priority 2006, dated 2008).

Experiments:
[1] = Rapid-throughput BODIPY-TR cadaverine (BC) fluorescence displacement assay for binding affinity to LPS; conditions: half-maximal effective displacement of BODIPY-TR cadaverine probe from LPS; 50 mM Tris buffer, pH 7.4; read-out: Binding affinity (BC displacement) ED50 value
Protocol: Rapid-throughput Fluorescence Displacement Assay for quantifying binding affinities to LPS. […] Polymyxin B (PMB), a peptide antibiotic known to bind and neutralize LPS^65 serves as the positive control and reference compound for every plate, enabling the quantitative assessment of repeatability and reproducibility (CV and Z′ factors) for the assay. Automated liquid handling is performed on a Precision 2000 automated microplate pipetting system, programmed using the Precision Power software, Bio-Tek Instruments Inc., VT, USA. Results are reported as half-maximal effective displacement of probe (ED50) (Tables A-F). In all experiments, Polymyxin B (PMB), a decapeptide antibiotic, known to bind and neutralize LPS,^66-69 is used as a reference compound.

[2] = system: LPS-induced nitric oxide production in murine macrophage J774A.1 cells; test: NO inhibition (Griess nitrite assay) in LPS-stimulated murine macrophage J774A.1 cells; format: cell-based; conditions: Mus musculus, J774.A1, 10 ng/ml LPS, 16 h
Protocol: Assessment of neutralization of LPS toxicity: NO inhibition activity. Nitric oxide production is measured as total nitrite in murine macrophage J774A.1 cells using the Griess assay^70 as described previously.^71 J774A.1 cells are plated at ˜10^5/ml in a volume of 40 μl/well, in 384-well, flat-bottomed, cell culture treated microtiter plates and subsequently stimulated with 10 ng/ml lipopolysaccharide (LPS). Concurrent to LPS stimulation, serially diluted concentrations of test compounds are added to the cell medium and left to incubate for 16 h. Polymyxin B is used as reference compound in each plate. Positive-(LPS stimulation only) and negative-controls (J774A.1 medium only) are included in each experiment. Nitrite concentrations are measured by adding 40 μl of supernatant to equal volumes of Griess reagents (50 μl/well; 0.1% NED solution in ddH2O and 1% sulfanilamide, 5% phosphoric acid solution in ddH2O) and incubating for 15 minutes at room temperature in the dark. Absorbance at 535 nm is measured using a Molecular Devices Spectramax M2 multifunction plate reader (Sunnyvale, Calif.). Nitrite concentrations are interpolated from standard curves obtained from serially diluted sodium nitrite standards. IC50 values are determined for compounds that neutralize LPS inhibit NO production in a dose-dependent manner (Tables A-F). Results in this assay parallel those in the binding assay.

[3] = system: LPS-induced NF-κB induction in human embryonic kidney 293 cells cotransfected with TLR4, CD14 and MD2; test: Inhibition of LPS induction of NF-κB (seAP reporter) in HEK 293 cells cotransfected with TLR4, CD14 and MD2; format: cell-based; conditions: Homo sapiens, HEK293; inhibition of LPS-induced NF-κB induction, HEK 293 TLR4/CD14/MD2 reporter cells; read-out: NFκβ inhibition IC50 value
Text: Assessment of Inhibition of Cytokine Induction (NF-κB): The inhibition of induction of NF-κB (a key transcripitional activator of the innate immune system, leading to uncontrolled cytokine release^72,73 which ultimately leads to multiple organ failure and the shock syndrome) is quantified using human embryonic kidney 293 cells cotransfected with TLR4 (LPS receptor), CD14 and MD2 (co-receptors), available from InvivoGen, Inc. (HEK-Bluetm, San Diego, Calif.), as per protocols provided by the vendor. Stable expression of secreted alkaline phosphatase (seAP) under control of NF-κB/AP-1 promoters is inducible by LPS, and extracellulare seAP in the supernatant is proportional to NF-κB induction. seAP is assayed spectrophotometrically using an alkaline phosphatase-specific chromogen at 620 nm using a rapid-throughput, automated protocol employing a Bio-Tek P2000 liquid handler. Results showing the ability of polycationic sulfonamide compounds to inhibit the induction of NF-κB by LPS are shown in Tables A-F.

[4] = system: LPS-induced lethality in CF-1 mice; test: Mouse lethality assay (D-galactosamine-sensitized mice, supralethal LPS challenge); format: in vivo; conditions: FIG. 9; for mice protected from LPS lethality: 200 μg/mouse compound i.p., supralethal 200 ng LPS challenge, lethality at 24 h
Text: Compound MQTS 2358 represents spermine-sulfonamide Series A (SPM). Compound MQTS 2383 represents homologated spermine-sulfonamide Series B (HOMO-SPM). Compound MQTS 2389 represents branched homologated spermine-sulfonamide Series D (BRANCHED-HOMO-SPM). Also included in FIG. 9 are positive control compounds MQTS 3938 and MQTS 3942 (L-Lys(C18-alkyl)-spermine and D-Lys(C18-alkyl)-spermine, respectively) previously reported.^60 As shown in this figure, i.p. dosing with these compounds affords significant protection from super-lethal challenges with LPS in this model. Dosages of 200 μg/mouse) protected 5 out of 5 mice with all compounds except MQT 2389 which appears to have toxic effects above 50 μg/mouse dosages. Furthermore, treatment with lower dosages of these compounds also affords significant protection from the toxic effects of LPS.
Mouse lethality experiments: Female, outbred, 9- to 11-week-old CF-1 mice (Charles River, Wilmington, Mass.) weighing 22-28 g are used as described elsewhere.^71 Upon arrival, the mice are allowed to acclimatize for a week prior to experimentation, housed 5 per cage in a controlled environment at the AALAC-accredited University of Kansas Animal Care Facility, and allowed access to mouse chow and water ad libitum. The animals are sensitized to the lethal effects of LPS by D-galactosamine.^74-76 The lethal dose causing 100% mortality (LD100) dose of the batch of LPS used (E. coli 0111:B4 procured from Sigma) is first determined by administering D-galactosamine (800 mg/kg) and LPS (0, 10, 20, 50, 100, 200 ng/mouse) as a single injection intraperitoneally (i.p.) in freshly prepared saline to batches of five animals in a volume of 0.2 ml. […] In experiments designed to test dose-response effects of the polycationic sulfonamides in affording protection against LPS-induced lethality, mice received graded doses of compound diluted in saline, i.p., in one flank, immediately before a supralethal (200 ng) LPS challenge, which is administered as a separate i.p. injection into the other flank. In experiments in which the temporal window of protection is to be examined, a fixed dose of 200 μg/mouse of compound is administered at various times, before, or after supralethal (200 ng/mouse) LPS challenge. Lethality is determined at 24 h post LPS challenge.

| Compound | EC50 [1] | IC50 [2] | IC50 [3] | dosage above which toxic effects appear ([4]; i.p. dosing in mouse lethality assay) | mice protected from LPS lethality [4] |
| --- | --- | --- | --- | --- | --- |
| CCCCCCCCS(=O)(=O)NCCCN(CCCNCCCNCCCCNCCCN)CCCNS(=O)(=O)CCCCCCCC [MQTS 2389, N^1-Bis[N-octanylsulfonyl-3-aminopropyl]-1,18-diamino-5,9,14-triazaoctadecane] | 2620 nM | 320 nM | 300 nM | above 50 μg/mouse |  |
| CCCCCCCCCCCCCCCCS(=O)(=O)NCCCNCCCCNCCCN [MQTS 2358] | 3870 nM | 450 nM | 280 nM |  | 5 out of 5 |
| L-Lys(C18-alkyl)-spermine [MQTS 3938, reference compound] |  |  |  |  | 5 out of 5 |
| CCCCCCCCCCCCCCCCS(=O)(=O)NCCCNCCCNCCCCNCCCN [MQTS 2383] | 4710 nM | 120 nM | 200 nM |  | 5 out of 5 |
| D-Lys(C18-alkyl)-spermine [MQTS 3942, reference compound] |  |  |  |  | 5 out of 5 |
